Literature values in PMC3218206 (Chemical biology & drug design, 2011).

Assays:
[1] = biological target: Nrf2 14mer peptide (Homo sapiens); assay: ITC

In the case of LQLDEETGEFLPIQ, the “displacement of Nrf2 from Keap1-Nrf2 complex” value (Keap1-Nrf2 complex) is listed as “effectively”.

For Keap1 (from UniProt Q14145), the Kd [1] is given as 20 nM.
